Assay results as given in PMC9377102, “Toxicity and toxicokinetics of the ethanol extract of Zuojin formula” (BMC Complementary Medicine and Therapies, 2022).

Experiments:
[1] = Toxicokinetics test in the satellite groups (UPLC-MS/MS of rat plasma); type: in vivo; conditions: rat, in vivo; for Cmax: male
Procedure: SD rats (5 ~ 6 weeks, 3/group/sex) were randomly allocated to three treatment groups and given the same dosage as those in the repeated toxicity experiment for 28 days. […] Carbamazepine was chosen as the internal standard (IS). The blood samples were centrifuged to obtain plasma. Then, 300 μL of acetonitrile containing 40 ng of IS was added to 100 μL of plasma. After vortexing for 1 min, the mixture was centrifuged at 17,000 rpm for 15 min at 4 °C. The supernatant of each sample was injected into a UPLC–MS/MS system for determination. The injection volume was 1 μL. UPLC–MS analysis was performed on a Thermo Fisher Scientific Ultimate 3000 UPLC system (San Jose, USA) and an API 4000 QTRAP mass spectrometer (Foster City, USA) equipped with an ESI source. The mobile phase consisted of 2 solvents: (A) water containing 0.1% formic acid and (B) 100% acetonitrile. For MS, multiple reaction monitoring (MRM) in positive ion mode was used as the scanning mode for the main components and IS in the plasma samples. The dwell time (DT), collision energy (CE), quadrupole 1 pre-rod bias (Q1) and quadrupole 3 pre-rod bias (Q3) are listed in Table 3.

[2] = test system: CYP3A4, CYP1A2 and CYP2D6; conditions: cited from earlier work

O=c1c2ccccc2nc2n1CCc1c-2[nH]c2ccccc12 [rutaecarpine]
Level in plasma ([1]; both, SD, po): < 0.5 ng/mL

c1c2c(cc3c1OCO3)-c1cc3ccc4c(c3c[n+]1CC2)OCO4 [coptisine]
Cmax ([1]; SD, po, 0.4 g/kg): 45.49 ± 57.63 ng/mL | Cmax ([1]; SD, po, 0.4 g/kg, Cmax): 32.4 ± 33 ng/mL | Cmax ([1]; SD, po, 3.7 g/kg): 20.05 ± 13.57 ng/mL | Cmax ([1]; SD, po, 3.7 g/kg, Cmax): 32.3 ± 9.08 ng/mL | Systemic exposure after 28 days of administration vs single administration ([1]; po): much lower

COc1cc2c(cc1OC)-c1cc3ccc4c(c3c[n+]1CC2)OCO4 [epiberberine]
Inhibition of CYP3A4, CYP1A2 and CYP2D6 [2]: inhibited | 28-day AUC relative to the first day [1]: 1 to 2 times
